Experiment [1] concerns IFNγ induced ICAM-1 (CD54) up-regulation in A549 lung epithelial cells (JAK/Stat pathway). The experiment can be described thus: A549 Epithelial Line Stimulated with IFNγ (ICAM-1 surface expression, flow cytometry). Type of experiment: cell-based, human. Particulars: Table III Example 5. The text has this:
The activity of the compounds of the invention may additionally be characterized by assaying the effect of the 2,4-pyrimidinediamine compounds described herein on A549 lung epithelial cells and U937 cells. A549 lung epithelial cells and U937 cells up-regulate ICAM-1 (CD54) surface expression in response to a variety of different stimuli. Therefore, using ICAM-1 expression as readout, test compound effects on different signaling pathways can be assessed in the same cell type. Stimulation with IL-1β through the IL-1β receptor activates the TRAF6/NFκB pathway resulting in up-regulation of ICAM-1. IFNγ induces ICAM-1 up-regulation through activation of the JAK1/JAK2 pathway. The up-regulation of ICAM-1 can be quantified by flow cytometry across a compound dose curve and EC50 values are calculated. Exemplary assays of this type are described in greater detail in Examples 5 and 6.
A549 lung epithelial cells up-regulate ICAM-1 (CD54) surface expression in response to a variety of different stimuli. Therefore, using ICAM-1 expression as readout, compound effects on different signaling pathways can be assessed in the same cell type. IFNγ up-regulates ICAM-1 through activation of the JAK/Stat pathway. In this example, the up-regulation of ICAM-1 by IFNγ was assessed.
The A549 lung epithelial carcinoma cell line originated from the American Type Culture Collection. Routine culturing was with F12K media (Mediatech Inc., Lenexa, Kans., Cat. No. 10-025-CV) with 10% fetal bovine serum, 100 I.U. penicillin and […] streptomycin (complete F12k media). Cells were incubated in a humidified atmosphere of 5% CO2 at 37° C. Prior to use in the assay, A549 cells were washed with PBS and trypsinized (Mediatech Inc., Cat. No. 25-052-CI) to lift the cells. The trypsin cell suspension was neutralized with complete F12K media and centrifuged to pellet the cells. The cell pellet was resuspended in complete F12K media at a concentration of 2.0×10^5/mL. Cells were seeded at 20,000 per well, 100 μL total volume, in a flat bottom tissue culture plate and allowed to adhere overnight.
On day two, A549 cells were pre-incubated with a 2,4-pyrimidinediamine test compound or DMSO (control) (Sigma-Aldrich, St. Louis, Mo., Catalog No. D2650) for 1 hour. The cells were then stimulated with IFNγ (75 ng/mL) (Peprotech Inc., Rocky Hill, N.J., Cat. No. 300-02) and allowed to incubate for 24 hours. The final test compound dose range was 30 μM to 14 nM in 200 μL F12K media containing 5% FBS, 0.3% DMSO.
On day three, the cell media was removed and the cells were washed with 200 μL PBS (phosphate buffered saline). Each well was trypsinized to dissociate the cells, then neutralized by addition of 200 μL complete F12K media. Cells were pelleted and stained with an APC conjugated mouse anti-human ICAM-1 (CD54) (BD Pharmingen, San Diego, Calif., Catalog #559771) antibody for 20 minutes at 4° C. Cells were washed with ice cold FACS buffer (PBS+2% FBS) and surface ICAM-1 expression was analyzed by flow cytometry. Detection was performed using a BD LSR I System Flow Cytometer, purchased from BD Biosciences of San Jose, Calif. Events were gated for live scatter and the geometric mean was calculated (Becton-Dickinson CellQuest software version 3.3, Franklin Lakes, N.J.). Geometric means were plotted against the compound concentration to generate a dose response curve.
Background: In flow cytometry, cells or beads pass a laser one at a time.

Experiment [2] relates to IFNγ induced ICAM-1 (CD54) up-regulation in U937 human monocytic cells (JAK/Stat pathway). The experiment in a line: U937 IFNγ ICAM1 FACS Assay. It counts as cell-based. As to conditions: Table III Example 6; 10 ng/mL IFNγ, 18-24 hours. An outline of the steps: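 Flow cytometry gave ICAM-1 (CD54) up-regulation as ICAM-APC geometric mean within the live-cell gate, alongside % viable cells. Human monocytic U937 cells received 3-fold serial compound dilutions for 30 min at 37 °C, followed by IFNγ stimulation lasting 18–24 h. Dose curves yielded EC50s.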

Each structure is given as a SMILES string.

One may read the IC50 as the concentration that gives 50% inhibition. With `Cc1ccc(Nc2ncc(F)c(Nc3ccc(CNS(=O)(=O)C(C)C)cc3)n2)cc1S(N)(=O)=O` [Compound I-67, N2-(3-aminosulfonyl-4-methyl)phenyl-5-fluoro-N4-(4-isopropylsulfonylaminomethyl)phenyl-2,4-pyrimidinediamine], the IC50 stood at 3.29 µM in experiment [1] and 0.321 µM in experiment [2].

On to `NS(=O)(=O)c1ccc(Nc2ncc(F)c(Nc3ccc(CNS(=O)(=O)C4CCCC4)cc3)n2)cc1` [Compound I-68, N2-(4-aminosulfonyl)phenyl-N4-(4-cyclopentylsulfonylaminomethyl)phenyl-5-fluoro-2,4-pyrimidinediamine], for which the half-maximal inhibitory concentration (IC50) in experiment [1] was determined as 4.95 µM; in experiment [2] it was 0.289 µM.

Turning to `NS(=O)(=O)c1cccc(Nc2ncc(F)c(Nc3ccc(CNS(=O)(=O)C4CCCC4)cc3)n2)c1` [Compound I-69, N2-(3-aminosulfonyl)phenyl-N4-(4-cyclopentylsulfonylaminomethyl)phenyl-5-fluoro-2,4-pyrimidinediamine], the results for the IC50 in experiment [1] and in experiment [2] were 7.76 µM and 0.176 µM, respectively.

Turning to `Cc1ccc(Nc2ncc(F)c(Nc3ccc(CNS(=O)(=O)C4CCCC4)cc3)n2)cc1S(N)(=O)=O` [Compound I-70, N2-(3-aminosulfonyl-4-methyl)phenyl-N4-(4-cyclopentylsulfonylaminomethyl)phenyl-5-fluoro-2,4-pyrimidinediamine], the IC50 in experiment [1] was 2.58 µM; in experiment [2], 0.159 µM.

As for `NS(=O)(=O)c1ccc(Nc2ncc(F)c(Nc3ccc(CNS(=O)(=O)C4CCCCC4)cc3)n2)cc1` [Compound I-71, N2-(4-aminosulfonyl)phenyl-N4-(4-cyclohexylsulfonylaminomethyl)phenyl-5-fluoro-2,4-pyrimidinediamine], the IC50 in experiment [1] was 10.5 µM; in experiment [2], 0.401 µM.

Regarding `NS(=O)(=O)c1cccc(Nc2ncc(F)c(Nc3ccc(CNS(=O)(=O)C4CCCCC4)cc3)n2)c1` [Compound I-72, N2-(3-aminosulfonyl)phenyl-N4-(4-cyclohexylsulfonylaminomethyl)phenyl-5-fluoro-2,4-pyrimidinediamine], the IC50 in experiment [1] came out at 2.66 µM; in experiment [2], 0.204 µM.

On to `Cc1ccc(Nc2ncc(F)c(Nc3ccc(CNS(=O)(=O)C4CCCCC4)cc3)n2)cc1S(N)(=O)=O` [Compound I-73, N2-(3-aminosulfonyl-4-methyl)phenyl-N4-(4-cyclohexylsulfonylaminomethyl)phenyl-5-fluoro-2,4-pyrimidinediamine], for which the values for the half-maximal inhibitory concentration (IC50) in experiment [1] and in experiment [2] were 3.57 µM and 0.311 µM, respectively.

Regarding `CCCN(Cc1ccc(Nc2nc(Nc3cccc(S(N)(=O)=O)c3)ncc2C)cc1)S(=O)(=O)C1CC1` [Compound I-80, N2-(3-aminosulfonyl)phenyl-N4-[4-(N-cyclopropylsulfonyl-N-propylamino)methyl]phenyl-5-methyl-2,4-pyrimidinediamine], the IC50 amounted to 4.13 µM in experiment [1] and 0.143 µM in experiment [2].

With `Cc1cnc(Nc2cc(S(N)(=O)=O)cc(S(N)(=O)=O)c2)nc1Nc1ccc(CNS(=O)(=O)C2CC2)cc1` [Compound I-84, N4-(4-cyclopropylsulfonylaminomethyl)phenyl-N2-(3,5-diaminosulfonyl)phenyl-5-methyl-2,4-pyrimidinediamine], the IC50 in experiment [1] came out at 9.53 µM; in experiment [2], 0.928 µM.

With `Cc1cnc(Nc2cccc(S(N)(=O)=O)c2)nc1Nc1ccc(CNS(=O)(=O)CC(F)(F)F)cc1` [Compound I-97, N2-(3-aminosulfonyl)phenyl-5-methyl-N4-(4-trifluoroethylsulfonylaminomethyl)phenyl-2,4-pyrimidinediamine], the results for the concentration for half-maximal inhibition (IC50) in experiment [1] and in experiment [2] were 13.3 µM and 0.257 µM, respectively.

With `Cc1ccc(Nc2ncc(Cl)c(Nc3ccc(CNS(=O)(=O)C4CC4)cc3)n2)cc1S(N)(=O)=O` [Compound I-113, N2-(3-aminosulfonyl-4-methyl)phenyl-5-chloro-N4-(4-cyclopropylsulfonylaminomethyl)phenyl-2,4-pyrimidinediamine], the IC50 came out at 0.888 µM in experiment [1] and 0.0471 µM in experiment [2].

For `NS(=O)(=O)c1cccc(Nc2ncc(Cl)c(Nc3ccc(CNS(=O)(=O)C4CC4)cc3)n2)c1` [Compound I-114, N2-(3-aminosulfonyl)phenyl-5-chloro-N4-(4-cyclopropylsulfonylaminomethyl)phenyl-2,4-pyrimidinediamine], the IC50 turned out to be 5.65 µM in experiment [1] and 0.0517 µM in experiment [2].

Regarding `NS(=O)(=O)c1ccc(Nc2ncc(Cl)c(Nc3ccc(CNS(=O)(=O)C4CC4)cc3)n2)cc1` [Compound I-115, N2-(4-aminosulfonyl)phenyl-5-chloro-N4-(4-cyclopropylsulfonylaminomethyl)phenyl-2,4-pyrimidinediamine], the IC50 in experiment [1] was found to be 2.72 µM; in experiment [2] it was 0.105 µM.

For the compound `CCC(=O)N(Cc1cccc(Nc2nc(Nc3cccc(S(N)(=O)=O)c3)ncc2C)c1)S(=O)(=O)C1CC1` [Compound I-116, N2-(3-aminosulfonyl)phenyl-N4-[3-(N-cyclopropylsulfonyl-N-propionyl)aminomethyl]phenyl-5-methyl-2,4-pyrimidinediamine], the results for the IC50 in experiment [1] and in experiment [2] were 1.83 µM and 0.178 µM, respectively.

Consider `Cc1ccc(Nc2ncc(C)c(Nc3ccc(CNS(=O)(=O)C(C)C)cc3)n2)cc1S(N)(=O)=O` [Compound I-117, N2-(3-aminosulfonyl-4-methyl)phenyl-N4-(4-isopropylsulfonylaminomethyl)phenyl-5-methyl-2,4-pyrimidinediamine], for which the concentration for half-maximal inhibition (IC50) is 2.17 µM in experiment [1] and 0.0601 µM in experiment [2].

Take `Cc1cnc(Nc2cccc(S(N)(=O)=O)c2)nc1Nc1ccc(CNS(=O)(=O)C(C)C)cc1` [Compound I-118, N2-(3-aminosulfonyl)phenyl-N4-(4-isopropylsulfonylaminomethyl)phenyl-5-methyl-2,4-pyrimidinediamine]: the IC50 in experiment [1] was found to be 2.48 µM; in experiment [2] it was 0.218 µM.

On to `Cc1cnc(Nc2cccc(S(N)(=O)=O)c2)nc1Nc1ccc(CNS(=O)(=O)C2CC2)c(Cl)c1` [Compound I-119, N2-(3-aminosulfonyl)phenyl-N4-(3-chloro-4-cyclopropylsulfonylaminomethyl)phenyl-5-methyl-2,4-pyrimidinediamine], for which the values for the IC50 in experiment [1] and in experiment [2] were 4.42 µM and 0.535 µM, respectively.

For the compound `Cc1cnc(Nc2cccc(S(N)(=O)=O)c2)nc1Nc1cccc(CN(C)S(=O)(=O)C2CC2)c1` [Compound I-120, N2-(3-aminosulfonyl)phenyl-N4-[3-(N-cyclopropylsulfonyl-N-methyl)aminomethyl]phenyl-5-methyl-2,4-pyrimidinediamine], the results for the IC50 in experiment [1] and in experiment [2] were 2.54 µM and 0.0984 µM, respectively.

Turning to `Cc1cnc(Nc2cccc(S(N)(=O)=O)c2)nc1Nc1ccc(CN(C)S(=O)(=O)C2CC2)cc1` [Compound I-121, N2-(3-aminosulfonyl)phenyl-N4-[4-(N-cyclopropylsulfonyl-N-methyl)aminomethyl]phenyl-5-methyl-2,4-pyrimidinediamine], the IC50 in experiment [1] amounted to 36.5 µM; in experiment [2] it was 0.231 µM.

In the case of `Cc1cnc(Nc2ccc(S(N)(=O)=O)cc2)nc1Nc1ccc(CNS(=O)(=O)C(C)C)cc1` [Compound I-123, N2-(4-aminosulfonyl)phenyl-N4-(4-isopropylsulfonylaminomethyl)phenyl-5-methyl-2,4-pyrimidinediamine], the IC50 in experiment [1] turned out to be 19 µM; in experiment [2], 0.164 µM.

On to `Cc1cnc(Nc2ccc(S(N)(=O)=O)cc2)nc1Nc1cccc(CN(C)S(=O)(=O)C2CC2)c1` [Compound I-124, N2-(4-aminosulfonyl)phenyl-N4-[3-(N-cyclopropylsulfonyl-N-methyl)aminomethyl]phenyl-5-methyl-2,4-pyrimidinediamine], for which the 50% inhibitory concentration (IC50) in experiment [1] is 5.72 µM; in experiment [2], 0.373 µM.

Values taken from patent publication US9481654B2, “Compositions and methods for inhibition of the JAK pathway” (Rigel Pharmaceuticals, Inc., priority 2006, dated 2016).
